# Assay results from patent US20260256762A1, “Aromatic Amide Derivative, And Preparation Method Therefor And Medical Use Thereof” (ZHEJIANG HISUN PHARMACEUTICAL CO., LTD., priority 2023, published 2026).
# What was measured:
# OVCAR-3 cells = assay: Inhibition of proliferation of OVCAR-3 cells (CellTiter-Glo); assay type: cell-based; conditions: Homo sapiens, OVCAR-3 cells (TP53 R248Q mutation), 72 hours, read-out: IC50 inhibiting the proliferation of OVCAR-3 cells
# Procedure: (§1) The following method was used to determine the effect of the compound of the present invention on the proliferation of OVCAR-3 cells. OVCAR-3 cells (comprising TP53 R248Q mutation) were purchased from the Cell Resource Center of Shanghai Institute of Life Sciences, Chinese Academy of Sciences, and cultured in a RPMI 1640 medium comprising10% fetal bovine serum, 100 U penicillin and 100 μg/mL streptomycin. Cell viability was determined by Cell Titer-Glo® Luminescent Cell Viability Assay Kit (Promega, article No. G7573).
# (§2) An experimental method was carried out according to steps provided in the kit manual, with details as follows: firstly, a test compound was dissolved in DMSO to prepare a 10 mM storage solution, and then diluted with a culture medium to prepare a test sample. A final concentration of the compound ranged from 1000 nM to 0.015 nM. Cells in a logarithmic growth phase were inoculated into a 96-mesh cell culture plate at a density of 1000 cells per mesh, cultured overnight in a 5% CO2 incubator at 37° C., and then cultured for 72 hours after adding the test compound. After completion of cultivation, 50 uL CellTiter-Glo detection solution was added into each mesh, shook for 5 minutes, and stood for 10 minutes, and then a luminous value of each mesh of the sample was read by a microplate reader using Luminescence mode. Compared with the numerical value of a control group (0.3% DMSO), a percentage inhibition rate of the compound at each concentration point was calculated, and then an IC50 value of the compound inhibiting cell proliferation was obtained by a nonlinear regression analysis with a logarithmic-inhibition rate of the compound concentration in a GraphPad Prism 5 software, as shown in Table 1.
# HT-29 cells = assay: Inhibition of proliferation of HT-29 cells (CellTiter-Glo); assay type: cell-based; conditions: Homo sapiens, HT-29 cells (TP53 R273H mutation), 120 hours, read-out: IC50 inhibiting the proliferation of HT-29 cells
# Procedure: as §1, with “HT-29” for “OVCAR-3”, “R273H” for “R248Q”, “McCOY's 5A” for “RPMI 1640”, “comprising 10%” for “comprising10%”
# as §2, with “per mesh, and cultured overnight” for “per mesh, cultured overnight”, “cultured for 120 hours after” for “cultured for 72 hours after”, “Compared with a numerical value” for “Compared with the numerical value”, “in Table 2.” for “in Table 1.”
# [1] = biological target: T1, recombinant human KIF18A enzyme (Homo sapiens, UniProt Q8NI77); assay: Inhibition of KIF18A enzyme activity (ADP-Glo); assay type: biochemical; conditions: recombinant human KIF18A protein 100 nM, ATP 60 uM, read-out: IC50 inhibiting KIF18A enzyme activity
# T1 construct: purchased Genscript
# T1 sequence (Q8NI77 whole entry): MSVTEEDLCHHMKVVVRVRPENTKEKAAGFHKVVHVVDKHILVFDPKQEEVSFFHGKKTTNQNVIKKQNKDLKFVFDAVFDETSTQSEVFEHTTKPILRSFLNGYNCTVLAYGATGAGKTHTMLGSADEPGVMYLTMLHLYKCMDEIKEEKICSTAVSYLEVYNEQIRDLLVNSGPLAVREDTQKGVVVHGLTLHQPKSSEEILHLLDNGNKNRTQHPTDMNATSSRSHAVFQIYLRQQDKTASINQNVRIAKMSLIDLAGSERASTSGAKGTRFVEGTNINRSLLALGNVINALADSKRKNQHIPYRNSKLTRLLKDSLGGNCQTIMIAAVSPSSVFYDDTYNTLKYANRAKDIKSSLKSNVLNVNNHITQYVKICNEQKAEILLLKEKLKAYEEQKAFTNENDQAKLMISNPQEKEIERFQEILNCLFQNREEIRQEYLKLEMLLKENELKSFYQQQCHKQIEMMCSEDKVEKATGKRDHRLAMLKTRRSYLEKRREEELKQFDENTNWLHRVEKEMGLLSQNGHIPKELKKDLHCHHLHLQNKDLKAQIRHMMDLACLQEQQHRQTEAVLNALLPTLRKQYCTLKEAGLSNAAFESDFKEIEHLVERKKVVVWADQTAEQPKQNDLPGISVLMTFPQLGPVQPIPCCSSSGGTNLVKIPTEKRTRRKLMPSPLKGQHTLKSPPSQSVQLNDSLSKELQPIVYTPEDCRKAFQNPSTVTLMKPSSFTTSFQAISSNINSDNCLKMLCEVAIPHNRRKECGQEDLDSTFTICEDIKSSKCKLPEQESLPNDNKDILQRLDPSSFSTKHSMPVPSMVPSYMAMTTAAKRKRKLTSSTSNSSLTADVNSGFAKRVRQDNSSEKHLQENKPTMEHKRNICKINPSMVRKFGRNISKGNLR
# T1 sequence (P68363 whole entry partner): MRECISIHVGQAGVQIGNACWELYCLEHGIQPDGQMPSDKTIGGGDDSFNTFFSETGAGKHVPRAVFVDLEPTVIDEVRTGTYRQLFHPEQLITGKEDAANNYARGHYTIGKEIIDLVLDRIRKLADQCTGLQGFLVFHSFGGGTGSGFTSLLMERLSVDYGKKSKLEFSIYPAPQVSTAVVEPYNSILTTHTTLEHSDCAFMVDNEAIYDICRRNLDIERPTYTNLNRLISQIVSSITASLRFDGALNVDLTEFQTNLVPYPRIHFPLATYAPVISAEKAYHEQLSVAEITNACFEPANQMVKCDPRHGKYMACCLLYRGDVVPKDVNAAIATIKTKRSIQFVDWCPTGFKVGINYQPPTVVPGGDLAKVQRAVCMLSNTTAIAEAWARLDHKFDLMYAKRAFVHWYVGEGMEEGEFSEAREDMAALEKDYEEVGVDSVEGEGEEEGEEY
# T1 sequence (P07437 whole entry partner): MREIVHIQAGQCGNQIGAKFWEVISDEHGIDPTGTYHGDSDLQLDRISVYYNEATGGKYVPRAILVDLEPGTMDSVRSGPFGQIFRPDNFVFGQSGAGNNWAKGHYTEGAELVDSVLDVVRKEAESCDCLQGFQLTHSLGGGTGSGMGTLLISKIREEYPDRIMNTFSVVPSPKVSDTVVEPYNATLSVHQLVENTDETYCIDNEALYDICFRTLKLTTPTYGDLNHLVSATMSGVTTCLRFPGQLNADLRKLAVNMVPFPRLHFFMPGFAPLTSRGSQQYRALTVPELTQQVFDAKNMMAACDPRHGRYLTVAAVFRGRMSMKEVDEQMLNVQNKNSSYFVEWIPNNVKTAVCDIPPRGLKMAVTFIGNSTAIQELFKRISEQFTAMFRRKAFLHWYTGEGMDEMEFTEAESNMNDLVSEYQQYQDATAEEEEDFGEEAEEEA
# Procedure: The following method was used to determine a degree of inhibition of the compound of the present invention on the activity of recombinant human KIF18A enzyme in vitro. The method used ADP-Glo™ Kinase Assay kit (article No. V9102) of Promega Company. For detailed experimental operation, please refer to the kit instructions.
# Firstly, the compound and recombinant human KIF18A protein (final concentration of 100 nM, entrusted to Genscript for expression) were added into the mesh, and incubated at room temperature for 20 minutes. Then, ATP solution (component V915A from ADP-Glo™ Kinase Assay kit, final concentration of 60 uM) was added to the reaction solution, and the mixture was incubated at room temperature for 20 minutes. Subsequently, 5 μL ADP-Glo Reagent was added to the reaction system and the obtained system was incubated at troom temperature for 50 minutes. After that, 10 μL of Kinase Detection Reagent was added to the reaction system and the obtained system was incubated at room temperature for 30 minutes. After the completion of incubation, a chemiluminescence intensity value of each mesh was measured by a microplate reader using Luminescence mode.
# [2] = Pharmacokinetic test in mice after gavage administration; assay type: in vivo; conditions: ICR mice, male, Oral (10 mg/mL), plasma
# Procedure: Control Compound AMG650, Compound 9;
# ICR mice, male, 27.3-30.3 g, purchased from Charles River Experimental Animal Technology Co., Ltd.
# A proper amount of pharmaceutical compound was weighed, a proper amount of DMA, CrEL and 5% GS were added in turn, then the system was mixed evenly by ultrasonic vortex to prepare a 1 mg/mL drug administration preparation, wherein DMA, CrEL and 5% GS=10:10:80 (v:v:v).
# ICR mice, each compound injection group (9 mice in each group) to be determined, were fasted overnight, fed was given 4 hours after gavage administration (PO, the dosage of the compound was 10 mg/kg, the dosage volume was 10 mL/kg).
# About 0.1 mL blood was collected from orbits 0.25 hours, 0.5 hours, 1 hour, 2 hours, 4 hours, 8 hours, 10 hours and 24 hours […] after drug administration, and a whole blood sample was placed in an anticoagulant tube including EDTA-K2. Blood samples were collected and then placed on ice, and plasma was separated by centrifugation (centrifugation condition: 1500 g, 10 minutes). The collected plasma was stored at −40° C. to −20° C. before analysis.
# LC-MS/MS was used to determine the content of compounds to be tested in plasma of mice after gavage administration.
Compound,IC50 (OVCAR-3 cells),IC50 (HT-29 cells),IC50 [1],other results
"CCS(=O)(=O)Nc1ccc(C(=O)Nc2ccc(C#N)c(N3CCC(F)(F)CC3)c2)c(N2CCC3(CC2)CC3)c1 [Example 8, N-(4-cyano-3-(4,4-difluoropiperidin-1-yl)phenyl)-4-(ethylsulfonamido)-2-(6-azaspiro[2.5]octan-6-yl) benzamide]",0.0174 µM,0.0145 µM,0.0978 µM,–
"CCS(=O)(=O)Nc1ccc(C(=O)Nc2ccc(OC)c(N3CCOCC3)c2)c(N2CCC3(CC2)CC3)c1 [Example 10, 4-(ethylsulfonamido)-N-(4-methoxy-3-morpholinophenyl)-2-(6-azaspiro[2.5]octan-6-yl)benzamide]",0.0075 µM,0.0428 µM,–,–
"Cc1cc(NC(=O)c2ccc(NS(=O)(=O)CCO)cc2N2CCC3(CC2)CC3)nc(N2CCC(F)(F)CC2)n1 [AMG 650, reference compound]",–,–,–,Blood concentration Cmax [2]: 3050 ng/mL; Curve area AUC0-∞ [2]: 52500 ng·h/mL; Half-life period T½ [2]: 9.64 h
"CCS(=O)(=O)Nc1ccc(C(=O)Nc2ccc(OC(F)(F)F)c(N3CCC(F)(F)CC3)c2)c(N2CCC3(CC2)CC3)c1 [Example 13, N-(3-(4,4-difluoropiperidin-1-yl)-4-(trifluoromethoxy)phenyl)-4-(ethylsulfonamido)-2-(6-azaspiro[2.5]octan-6-yl)benzamide]",–,–,0.137 µM,–
"CCS(=O)(=O)Nc1ccc(C(=O)Nc2ccc(OC)c(N3CCC(F)(F)CC3)c2)c(N2CCC3(CC2)CC3)c1 [Example 9, N-(3-(4,4-difluoropiperidin-1-yl)-4-methoxyphenyl)-4-(ethylsulfonamido)-2-(6-azaspiro[2.5]octan-6-yl) benzamide]",0.0015 µM,0.0033 µM,–,"Cmax ([2]; mouse, 10 mg/kg, read-out: Blood concentration Cmax): 5270 ng/mL; AUC(0-inf) ([2]; mouse, 10 mg/kg, read-out: Curve area AUC0-∞): 52200 ng·h/mL; half-life ([2]; mouse, 10 mg/kg, read-out: Half-life period T½ (converted)): 5.9 h"
"CCS(=O)(=O)Nc1ccc(C(=O)Nc2ccc(OC)c(-c3ccc(F)cn3)c2)c(N2CCC3(CC2)CC3)c1 [Example 16, 4-(ethylsulfonamido)-N-(3-(5-fluoropyridine-2-yl)-4-methoxyphenyl)-2-(6-azaspiro [2.5]octan-6-yl) benzamide]",0.0045 µM,0.0271 µM,0.185 µM,–
"COc1ccc(NC(=O)c2ccc(NS(=O)(=O)CCO)cc2N2CCC3(CC2)CC3)cc1N1CCC(F)(F)CC1 [Example 6, N-(3-(4,4-difluoropiperidin-1-yl)-4-methoxyphenyl)-4-((2-hydroxyethyl)sulfonamido)-2-(6-azaspiro[2.5]octan-6-yl)benzamide]",0.0015 µM,0.0032 µM,–,–
"CCS(=O)(=O)Nc1ccc(C(=O)Nc2ccc(OC)c(CN3CC(F)(F)C3)c2)c(N2CCC3(CC2)CC3)c1 [Example 11, N-(3-((3,3-difluoroazetidin-1-yl)methyl)-4-methoxyphenyl)-4-(ethylsulfonamido)-2-(6-azaspiro[2.5]octan-6-yl)benzamide]",0.0147 µM,0.0039 µM,0.145 µM,–
"N#Cc1ccc(NC(=O)c2ccc(NS(=O)(=O)CCO)cc2N2CCC3(CC2)CC3)cc1N1CCC(F)(F)CC1 [Example 7, N-(4-cyano-3-(4,4-difluoropiperidin-1-yl)phenyl)-4-((2-hydroxyethyl)sulfonamido)-2-(6-azaspiro[2.5]octan-6-yl)benzamide]",0.0019 µM,0.0524 µM,0.177 µM,–
